Patent US10245244B2, “Pharmaceutical formulations for the treatment of pulmonary arterial hypertension” (HEART BIOTECH PHARMA LIMITED, priority 2014, dated 2019)

Assays:
aorta = experiment: U46619 contractile responses of aorta; conditions: control mice (normoxic), FIG. 9a
pulmonary arteries = experiment: U46619 contractile responses of pulmonary arteries; conditions: control mice (normoxic), FIG. 9a

## CCCCC[C@H](O)/C=C/[C@@H]1[C@@H](C/C=C\CCCC(=O)O)[C@H]2CO[C@@H]1C2 [U46619, 9,11-Dideoxy-9α,11α-methanoepoxy prostaglandin F2α]
aorta
  contraction of the aorta: significant contraction
Pulmonary arteries
  contraction of the pulmonary artery: less contraction
